{
  "source": "patent US20260048046A1",
  "about": "“METHOD FOR IMPROVING GROWTH PERFORMANCE IN FEEDLOT CATTLE” (Elanco US Inc., priority 2022, published 2026)",
  "key": {"beef cattle": {"tested_on": "beef cattle", "assay": "91-d study: Warner-Bratzler shear force of striploin steaks", "assay_type": "in vivo", "details": "91-d treatment, LS mean, shear force after 14-d aging", "description": "Following chill, striploins (LM) were collected from three randomly selected cattle/CPE and shipped to the University of Illinois Meat Science Laboratory for Warner-Bratzler shear force (WBSF) determination. At the laboratory, the anterior end of the striploin was fabricated into 2.54-cm steaks, vacuum packaged, and aged at 4° C. until 14-d postmortem. Steaks were frozen after aging, and then thawed at 4° C. for 24 h before being cooked on a Farberware Open Hearth electric broiler (Farberware, Bronx, NY). Copper-constantan Type-T thermocouples (Omega Engineering. Stamford, CT) connected to a digital scanning thermometer (Barnant Co., Barington, IL) were used to monitor internal temperature, and each steak was flipped a single time when the internal temperature reached 35° C. The steaks were removed from the grill when a temperature of 70° C. was achieved and cooled to ˜25° C. before six cores (1.25 cm diameter) were removed parallel to muscle fiber orientation. Cores were sheared perpendicular to the muscle fibers using a Texture Analyzer TA.HD Plus (Stable Microsystems, Godalming. UK) equipped with a WBSF attachment, and the peak WBSF measurement was averaged over all 6 cores to obtain a single shear force measurement (kg of force) for each steak."}, "beef feedlot cattle": {"tested_on": "beef feedlot cattle", "assay": "56-d study: animal mobility (NAMI mobility score)", "assay_type": "in vivo", "details": "for Percentage of steers, mobility score 1, Lairage / Percentage of steers, mobility score 2, Lairage / Percentage of steers, mobility score >2, Lairage / Percentage of steers, mobility score 1, Pen / Percentage of steers, mobility score 2, Pen / Percentage of steers, mobility score >2, Pen / Percentage of steers, mobility score 1, Loadout / Percentage of steers, mobility score 2, Loadout / Percentage of steers, mobility score >2, Loadout: final 56 d; for Percentage of steers, mobility score 1, Lairage / Percentage of steers, mobility score 2, Lairage / Percentage of steers, mobility score >2, Lairage: antemortem inspection at the packing plant; for Percentage of steers, mobility score 1, Pen / Percentage of steers, mobility score 2, Pen / Percentage of steers, mobility score >2, Pen: approx. 1 wk prior to harvest in home pens; for Percentage of steers, mobility score 1, Loadout / Percentage of steers, mobility score 2, Loadout / Percentage of steers, mobility score >2, Loadout: immediately prior to loading into trucks", "description": "Animal mobility assessments were conducted three times prior to harvest at: 1) approximately 1 week prior to harvest while cattle were in their home pens; 2) after collection of final pen weights and immediately prior to loading into trucks for slaughter; and 3) at antemortem inspection during lairage at the packing plant. The mobility scorer used the North American Meat Institute's (NAMI) mobility scoring system (Edwards-Callaway et al., 2017) to evaluate cattle mobility.\nThe label claim variable of cumulative NH3 gas emissions over the treatment period normalized by final BW (with d −59 BW as a covariate) for the period and HCW (g of gas kg^−1 of BW or g of gas kg^−1 HCW) was determined by utilizing NH3 gas emissions equations developed from the LUB clinical effectiveness study (FDA-FOI, 2018) and validated using animals of similar BW as described by Brown et al. (2019). The pen was the experimental unit for each outcome. Differences were deemed significant using a two-sided test at Ptrt≤0.05, however, a less stringent significance threshold of Ptrt≤0.10 was used for abnormal health observations. Fixed effect of treatment and random effects of time replicate and block within time replicate were included in the model. Discrete variables were analyzed using a generalized linear mixed model, Proc GLIMMIX SAS version 9.4 unless there were convergence problems due to sparseness of data. A binomial distribution was assumed and a logit link used in the analysis. Contrasts were constructed between the CON group and each non-CON dosage group, and differences were deemed significant at Pdose≤0.05. If convergence problems arose due to sparseness of data, Fisher's exact test (binomial data; Proc FREQ in SAS) or Wilcoxon's rank-sum test (categorical data; Proc NARIWAY in SAS) was used to evaluate differences between the CON group and the non-CON dosage groups. In all cases except for health observations, differences were deemed significant at Ptrt≤0.05 for these primary discrete variables. Additionally, non-CON dosage groups were compared to one another using a significance level of Pdose≤0.05. A less stringent Ptrt≤0.10 level of significance was used for health observations."}},
  "data": [
    {"smiles": "CC(C)(Cc1ccc(Oc2ncccc2C#N)cc1)NC[C@H](O)COc1ccccc1-c1cccs1", "note": "[LUB, 2-{4-[2-({(2S)-2-Hydroxy-3-[2-(2-thienyl)phenoxy]propyl}amino)-2-methylpropyl]phenoxy}nicotinonitrile]", "values": [
      {"measurement": "14-dWBSP", "setting": "beef cattle; LUB 1.38 mg·kg^−1 DM", "value": 2.79, "unit": "kg"},
      {"measurement": "14-dWBSP", "setting": "beef cattle; LUB 5.5 mg·kg^−1 DM", "value": 2.92, "unit": "kg"},
      {"measurement": "14-dWBSP", "setting": "beef cattle; LUB 22.0 mg·kg^−1 DM", "value": 2.75, "unit": "kg"},
      {"measurement": "Percentage of steers, mobility score 1, Lairage", "setting": "beef feedlot cattle; 1.5 mg·kg^−1 DM", "value": 80.2, "unit": "%"},
      {"measurement": "Percentage of steers, mobility score 2, Lairage", "setting": "beef feedlot cattle; 1.5 mg·kg^−1 DM", "value": 11.8, "unit": "%"},
      {"measurement": "Percentage of steers, mobility score >2, Lairage", "setting": "beef feedlot cattle; 1.5 mg·kg^−1 DM", "value": 8.0, "unit": "%"},
      {"measurement": "Percentage of steers, mobility score 1, Pen", "setting": "beef feedlot cattle; 1.5 mg·kg^−1 DM", "value": 85.0, "unit": "%"},
      {"measurement": "Percentage of steers, mobility score 2, Pen", "setting": "beef feedlot cattle; 1.5 mg·kg^−1 DM", "value": 11.4, "unit": "%"},
      {"measurement": "Percentage of steers, mobility score >2, Pen", "setting": "beef feedlot cattle; 1.5 mg·kg^−1 DM", "value": 3.6, "unit": "%"},
      {"measurement": "Percentage of steers, mobility score 1, Loadout", "setting": "beef feedlot cattle; 1.5 mg·kg^−1 DM", "value": 76.6, "unit": "%"},
      {"measurement": "Percentage of steers, mobility score 2, Loadout", "setting": "beef feedlot cattle; 1.5 mg·kg^−1 DM", "value": 21.4, "unit": "%"},
      {"measurement": "Percentage of steers, mobility score >2, Loadout", "setting": "beef feedlot cattle; 1.5 mg·kg^−1 DM", "value": 2.0, "unit": "%"},
      {"measurement": "Percentage of steers, mobility score 1, Lairage", "setting": "beef feedlot cattle; 3.5 mg·kg^−1 DM", "value": 81.7, "unit": "%"},
      {"measurement": "Percentage of steers, mobility score 2, Lairage", "setting": "beef feedlot cattle; 3.5 mg·kg^−1 DM", "value": 12.1, "unit": "%"},
      {"measurement": "Percentage of steers, mobility score >2, Lairage", "setting": "beef feedlot cattle; 3.5 mg·kg^−1 DM", "value": 6.2, "unit": "%"},
      {"measurement": "Percentage of steers, mobility score 1, Pen", "setting": "beef feedlot cattle; 3.5 mg·kg^−1 DM", "value": 85.9, "unit": "%"},
      {"measurement": "Percentage of steers, mobility score 2, Pen", "setting": "beef feedlot cattle; 3.5 mg·kg^−1 DM", "value": 10.4, "unit": "%"},
      {"measurement": "Percentage of steers, mobility score >2, Pen", "setting": "beef feedlot cattle; 3.5 mg·kg^−1 DM", "value": 3.7, "unit": "%"},
      {"measurement": "Percentage of steers, mobility score 1, Loadout", "setting": "beef feedlot cattle; 3.5 mg·kg^−1 DM", "value": 73.7, "unit": "%"},
      {"measurement": "Percentage of steers, mobility score 2, Loadout", "setting": "beef feedlot cattle; 3.5 mg·kg^−1 DM", "value": 23.1, "unit": "%"},
      {"measurement": "Percentage of steers, mobility score >2, Loadout", "setting": "beef feedlot cattle; 3.5 mg·kg^−1 DM", "value": 3.2, "unit": "%"},
      {"measurement": "Percentage of steers, mobility score 1, Lairage", "setting": "beef feedlot cattle; 5.5 mg·kg^−1 DM", "value": 80.9, "unit": "%"},
      {"measurement": "Percentage of steers, mobility score 2, Lairage", "setting": "beef feedlot cattle; 5.5 mg·kg^−1 DM", "value": 12.6, "unit": "%"},
      {"measurement": "Percentage of steers, mobility score >2, Lairage", "setting": "beef feedlot cattle; 5.5 mg·kg^−1 DM", "value": 6.5, "unit": "%"},
      {"measurement": "Percentage of steers, mobility score 1, Pen", "setting": "beef feedlot cattle; 5.5 mg·kg^−1 DM", "value": 86.9, "unit": "%"},
      {"measurement": "Percentage of steers, mobility score 2, Pen", "setting": "beef feedlot cattle; 5.5 mg·kg^−1 DM", "value": 8.3, "unit": "%"},
      {"measurement": "Percentage of steers, mobility score >2, Pen", "setting": "beef feedlot cattle; 5.5 mg·kg^−1 DM", "value": 4.8, "unit": "%"},
      {"measurement": "Percentage of steers, mobility score 1, Loadout", "setting": "beef feedlot cattle; 5.5 mg·kg^−1 DM", "value": 71.3, "unit": "%"},
      {"measurement": "Percentage of steers, mobility score 2, Loadout", "setting": "beef feedlot cattle; 5.5 mg·kg^−1 DM", "value": 25.0, "unit": "%"},
      {"measurement": "Percentage of steers, mobility score >2, Loadout", "setting": "beef feedlot cattle; 5.5 mg·kg^−1 DM", "value": 3.7, "unit": "%"},
      {"measurement": "Cattle scoring a mobility score of 1 or 2", "setting": "beef feedlot cattle; 56 d, all treatments, at all assessment times", "value": "≥ 92", "unit": "%"},
      {"measurement": "Animals receiving abnormal mobility scores of >2, across treatments", "setting": "beef feedlot cattle; 56 d, any assessment time point prior to harvest", "value": "not different across treatments"},
      {"measurement": "Percent of cattle scored 1 (mobility), differences among treatments", "setting": "beef feedlot cattle; 56 d, any assessment time, Ptrt≥0.17", "value": "No differences"},
      {"measurement": "Percent of cattle receiving mobility scores of 1 or 2, treatment differences", "setting": "beef feedlot cattle; 56 d, at any time, Ptrt≥0.170", "value": "No treatment differences"}
    ]}
  ]
}
